This passage reports EC50 and Maximum % activity results from patent US10118916B2, “Modulators of cystic fibrosis transmembrane conductance regulator protein” (AbbVie S.à.r.l., priority 2016, dated 2018).

Each structure is given as a SMILES string. A value given as a limit tells only on which side of the number the result lay.

The assay addresses T1, F508delCFTR (Homo sapiens, UniProt P13569, DEL508-508).
T1 construct: expressed in transfected cells; host or cells: CFBE41o- (human lung derived epithelial cell line), doxycycline-inducible
Description: Cell Surface Expression-Horse Radish Peroxidase (CSE-HRP) assay. The class given is cell-based. Particulars: CFBE41o-F508delCFTR-HRP cells; for EC50: F508delCFTR cell surface expression, luminescence, 18-24 hours at 33° C., highest concentration 20 μM; for Maximum % activity: maximum at any tested concentration, normalized to on-plate positive control (3 μM). From the text:
Cell Surface Expression-Horse Radish Peroxidase (CSE-HRP) Assay:
A cellular assay for measuring the F508delCFTR cell surface expression after correction with test compounds was developed in human lung derived epithelial cell line (CFBE41o-) (Veit G et al, (2012) Mol Biol Cell. 23(21): 4188-4202). This was achieved by expressing the F508delCFTR mutation along with a horseradish peroxidase (HRP) in the fourth exofacial loop and then measuring the HRP activity using luminescence readout from these cells, CFBE41o-F508delCFTR-HRP, that were incubated overnight with the test corrector compounds. Briefly, for this primary assay, the CFBE41o-F508delCFTR-HRP cells were plated in 384-well plates (Greiner Bio-one; Cat 781080) at 4,000 cells/well along with 0.5 μg/mL doxycycline to induce the F508delCFTR-HRP expression and further incubated at 37° C., 5% CO2 for 72 hours. The test compounds were then added at the required concentrations and further incubated for 18-24 hours at 33° C. The highest concentration tested was 20 μM with an 8-point concentration response curve using a 3-fold dilution. Three replicate plates were run to determine one EC50. All plates contained negative controls (dimethyl sulfoxide, DMSO) and positive controls (3 μM of 3-[(2R,4R)-4-({[1-(2,2-difluoro-1,3-benzodioxol-5-yl)cyclopropyl]carbonyl}amino)-7-methoxy-3,4-dihydro-2H-chromen-2-yl]benzoic acid) as well as on-plate concentration response of the positive control. Post incubation, the plates were washed 5× times with Dulbecco's phosphate buffered saline (DPBS), followed by the addition of the HRP substrate, luminol (50 μL), and measuring the HRP activity using luminescence readout on EnVision® Multilabel Plate Reader (Perkin Elmer; product number 2104-0010). The raw counts from the experiment are analyzed using Accelrys® Assay Explorer v3.3.
Z′ greater than 0.5 was used as passing quality control criteria for the plates.
The Z′ is defined as: 1−[3*SDPositive Control+3*SDNegative Control/Absolute(MeanPositive Control−MeanNegative Control)] wherein “SD” is standard deviation.
The % activity measured at each of the 8 test concentrations of the test compound was normalized to the on-plate positive control using the following formula: % activity=[(test compound response−DMSO response)/(positive control response−DMSO response)]*100
The maximum % activity achieved for the test compound at any tested concentration is presented in Table 1 along with the EC50 calculated using the following general sigmoidal curve with variable Hill slope equation (described as Model 42 in the Accelrys® Assay Explorer v3.3 software): y=(a−d)/(1+(x/c)^b)+d
General sigmoidal curve with concentration, response, top, bottom, EC50 and Hill slope.
This model describes a sigmoidal curve with an adjustable baseline, a. The equation can be used to fit curves where response is either increasing or decreasing with respect to the independent variable, “x”. • “x” is a concentration of drug under test. • “y” is the response. • “a” is the maximum response, and “d” is the minimum response • “c” is the inflection point (EC50) for the curve. That is, “y” is halfway between the lower and upper asymptotes when x=c. • “b” is the slope-factor or Hill coefficient. The sign of b is positive when the response increases with increasing dose and is negative when the response decreases with increasing dose (inhibition).

T1 sequence (P13569 with tags, fused parts or gaps DEL508-508): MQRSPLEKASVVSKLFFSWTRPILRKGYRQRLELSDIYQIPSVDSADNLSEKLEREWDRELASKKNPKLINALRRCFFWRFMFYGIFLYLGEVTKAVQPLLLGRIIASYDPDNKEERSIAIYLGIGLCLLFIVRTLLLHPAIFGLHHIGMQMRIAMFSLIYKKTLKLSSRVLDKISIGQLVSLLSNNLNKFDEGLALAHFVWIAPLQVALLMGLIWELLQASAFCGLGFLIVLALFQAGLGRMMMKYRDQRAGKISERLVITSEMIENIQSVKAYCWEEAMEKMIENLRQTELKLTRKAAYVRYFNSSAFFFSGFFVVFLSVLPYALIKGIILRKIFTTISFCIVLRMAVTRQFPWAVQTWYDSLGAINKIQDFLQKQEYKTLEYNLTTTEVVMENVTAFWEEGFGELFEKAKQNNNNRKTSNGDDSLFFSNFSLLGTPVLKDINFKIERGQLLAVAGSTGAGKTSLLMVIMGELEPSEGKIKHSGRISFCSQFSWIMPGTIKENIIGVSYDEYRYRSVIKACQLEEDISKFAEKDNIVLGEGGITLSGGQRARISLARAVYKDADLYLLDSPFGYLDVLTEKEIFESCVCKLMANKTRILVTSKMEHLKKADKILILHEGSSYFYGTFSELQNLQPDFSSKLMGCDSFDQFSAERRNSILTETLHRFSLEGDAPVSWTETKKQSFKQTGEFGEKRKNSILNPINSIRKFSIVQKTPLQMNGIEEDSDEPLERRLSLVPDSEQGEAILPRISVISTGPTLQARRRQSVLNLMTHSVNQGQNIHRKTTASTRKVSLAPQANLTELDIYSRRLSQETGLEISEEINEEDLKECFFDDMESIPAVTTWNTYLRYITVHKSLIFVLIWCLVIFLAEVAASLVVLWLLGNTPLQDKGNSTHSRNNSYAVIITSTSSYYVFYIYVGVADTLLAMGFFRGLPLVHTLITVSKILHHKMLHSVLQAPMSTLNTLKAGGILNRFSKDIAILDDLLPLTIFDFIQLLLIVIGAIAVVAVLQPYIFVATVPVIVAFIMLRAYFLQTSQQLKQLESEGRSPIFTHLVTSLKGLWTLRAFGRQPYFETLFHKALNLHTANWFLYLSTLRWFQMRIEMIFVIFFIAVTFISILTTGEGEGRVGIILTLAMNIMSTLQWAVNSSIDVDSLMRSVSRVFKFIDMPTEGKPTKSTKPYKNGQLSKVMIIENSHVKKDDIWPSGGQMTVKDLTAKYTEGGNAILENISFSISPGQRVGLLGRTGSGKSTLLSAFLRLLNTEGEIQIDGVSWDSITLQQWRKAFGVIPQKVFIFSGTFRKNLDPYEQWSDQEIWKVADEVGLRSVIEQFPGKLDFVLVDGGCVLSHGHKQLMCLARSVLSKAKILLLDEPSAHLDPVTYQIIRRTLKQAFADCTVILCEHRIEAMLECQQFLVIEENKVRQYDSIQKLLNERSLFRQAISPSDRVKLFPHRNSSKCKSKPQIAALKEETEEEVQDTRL

Turning to `COc1ccc2c(c1)O[C@@H](c1ccc(C(=O)O)cc1)C[C@H]2NC(=O)C1(c2ccc(OC)c(OC)c2)CCC1` [Example 116, 4-[(2R,4R)-4-{[1-(3,4-dimethoxyphenyl)cyclobutane-1-carbonyl]amino}-7-methoxy-3,4-dihydro-2H-1-benzopyran-2-yl]benzoic acid], the EC50 (as a rule, the concentration that produces a half-maximal response) is 3250 nM and the Maximum % activity turned out to be 27.6%.

`COc1ccc2c(c1)O[C@@H](c1ccc(C(=O)O)cc1)C[C@H]2NC(=O)C(C)(C)Oc1ccc2c(c1)OCO2` [Example 99, 4-[(2R,4R)-4-{2-[(2H-1,3-benzodioxol-5-yl)oxy]-2-methylpropanamido}-7-methoxy-3,4-dihydro-2H-1-benzopyran-2-yl]benzoic acid] returned an EC50 above 20000 nM and a Maximum % activity of 15.9%.

Compound `COc1ccc2c(c1)O[C@@H](c1ccc(C(=O)O)cc1)C[C@H]2NC(=O)C1(C)CCc2cc(OC(F)(F)F)ccc21` (stereo partly drawn) [Example 68, 4-[(2R,4R)-7-methoxy-4-{[1-methyl-5-(trifluoromethoxy)-2,3-dihydro-1H-indene-1-carbonyl]amino}-3,4-dihydro-2H-1-benzopyran-2-yl]benzoic acid] had a concentration giving a half-maximal response (EC50) of 1310 nM and a Maximum % activity of 85.0%.

Consider `COc1ccc2c(c1)CC[C@]2(C)C(=O)N[C@@H]1C[C@H](c2cccc(C(=O)O)c2)Oc2cc(OC)ccc21` [Example 35, 3-[(2R,4R)-7-methoxy-4-{[(1S)-5-methoxy-1-methyl-2,3-dihydro-1H-indene-1-carbonyl]amino}-3,4-dihydro-2H-1-benzopyran-2-yl]benzoic acid], for which the EC50 was found to be 200 nM and the Maximum % activity was found to be 57.5%.

In turn, `COc1ccc2c(c1)O[C@@H](c1ccc(C(=O)O)cc1)C[C@H]2NC(=O)C(C)(C)c1ccc2c(c1)OCCO2` [Example 112, 4-{(2R,4R)-4-[2-(2,3-dihydro-1,4-benzodioxin-6-yl)-2-methylpropanamido]-7-methoxy-3,4-dihydro-2H-1-benzopyran-2-yl}benzoic acid] gave an EC50 of 360 nM and a Maximum % activity of 59.9%.

Turning to `COc1ccc2c(c1)O[C@@H](c1ccc(C(=O)O)cc1)C[C@H]2NC(=O)C(C)(C)Oc1cccc(Cl)c1` [Example 73, 4-{(2R,4R)-4-[2-(3-chlorophenoxy)-2-methylpropanamido]-7-methoxy-3,4-dihydro-2H-1-benzopyran-2-yl}benzoic acid], the midpoint of the response, the EC50, lay at 1840 nM and the Maximum % activity worked out at 29.0%.

`COC(=O)c1ccc([C@H]2C[C@@H](NC(=O)C3(C)CCc4cc(C)ccc43)c3ccc(OC)cc3O2)cc1` (stereo partly drawn) [Example 124, methyl 4-{(2R,4R)-4-[(1,5-dimethyl-2,3-dihydro-1H-indene-1-carbonyl)amino]-7-methoxy-3,4-dihydro-2H-1-benzopyran-2-yl}benzoate] had an EC50 of 460 nM and a Maximum % activity of 87.7%.

Compound `COc1ccc2c(c1)OC(c1ccc(OC)c(OC)c1)CC2NC(=O)C1(c2ccc(Cl)cc2)CC1` (centres unmarked) [Example 21, 1-(4-chlorophenyl)-N-[2-(3,4-dimethoxyphenyl)-7-methoxy-3,4-dihydro-2H-1-benzopyran-4-yl]cyclopropane-1-carboxamide] returned a 50% effective concentration (EC50) of 1140 nM and a Maximum % activity of 77.8%.

Compound `COc1ccc2c(c1)OC(c1ccc(OC)c(OC)c1)CC2NC(=O)C1(c2cccc(F)c2)CC1` (centres unmarked) [Example 19, N-[2-(3,4-dimethoxyphenyl)-7-methoxy-3,4-dihydro-2H-1-benzopyran-4-yl]-1-(3-fluorophenyl)cyclopropane-1-carb oxamide] showed an EC50 of 1270 nM and a Maximum % activity of 40.8%.

In turn, `COc1ccc2c(c1)OC(c1ccc(OC)c(OC)c1)CC2NC(=O)C1(c2ccccc2)CC(F)(F)C1` (centres unmarked) [Example 16, N-[2-(3,4-dimethoxyphenyl)-7-methoxy-3,4-dihydro-2H-1-benzopyran-4-yl]-3,3-difluoro-1-phenylcyclobutane-1-carboxamide] yielded an EC50 above 20000 nM and a Maximum % activity of 4.0%.

`COc1cccc2c1[C@](C)(C(=O)N[C@@H]1C[C@H](c3cccc(C(=O)O)c3)Oc3ccccc31)CC2` [Example 50, 3-[(2R,4R)-4-{[(1R)-7-methoxy-1-methyl-2,3-dihydro-1H-indene-1-carbonyl]amino}-3,4-dihydro-2H-1-benzopyran-2-yl]benzoic acid] gave an EC50 above 20000 nM and a Maximum % activity of 4.9%.

For `COc1ccc2c(c1)O[C@@H](c1cccc(C(=O)O)c1)C[C@H]2NC(=O)C1(C)CCc2cc(C)ccc21` (stereo partly drawn) [Example 122, 3-{(2R,4R)-4-[(1,5-dimethyl-2,3-dihydro-1H-indene-1-carbonyl)amino]-7-methoxy-3,4-dihydro-2H-1-benzopyran-2-yl}benzoic acid], the midpoint of the response, the EC50, lay at 310 nM and the Maximum % activity is listed as 86.2%.

`COc1ccc2c(c1)O[C@@H](c1ccc(C(=O)O)cc1)C[C@H]2NC(=O)C(C)(C)c1ccc2c(c1)CCO2` [Example 71, 4-{(2R,4R)-4-[2-(2,3-dihydro-1-benzofuran-5-yl)-2-methylpropanamido]-7-methoxy-3,4-dihydro-2H-1-benzopyran-2-yl}benzoic acid] yielded an EC50 of 120 nM and a Maximum % activity of 52.0%.

As for `COc1ccc(C2(C(=O)N[C@@H]3C[C@H](c4ccc(C(=O)O)cc4)Oc4cc(OC)ccc43)CCC2)cc1` [Example 115, 4-[(2R,4R)-7-methoxy-4-{[1-(4-methoxyphenyl)cyclobutane-1-carbonyl]amino}-3,4-dihydro-2H-1-benzopyran-2-yl]benzoic acid], the half-maximal effective concentration (EC50) was determined as 630 nM and the Maximum % activity is 69.8%.

`COc1ccc2c(c1)O[C@@H](c1ccc(C(=O)O)cc1)C[C@H]2NC(=O)C1(c2ccc(Br)cc2)CCC1` [Example 104, 4-[(2R,4R)-4-{[1-(4-bromophenyl)cyclobutane-1-carbonyl]amino}-7-methoxy-3,4-dihydro-2H-1-benzopyran-2-yl]benzoic acid] displayed an EC50 of 1560 nM and a Maximum % activity of 71.0%.

As for `COc1ccc2c(c1)O[C@@H](c1ccc(C(=O)O)cc1)C[C@H]2NC(=O)C1(c2cccc(Cl)c2)CC1` [Example 101, 4-[(2R,4R)-4-{[1-(3-chlorophenyl)cyclopropane-1-carbonyl]amino}-7-methoxy-3,4-dihydro-2H-1-benzopyran-2-yl]benzoic acid], the EC50 worked out at 660 nM and the Maximum % activity is listed as 46.0%.

`COc1ccc2c(c1)O[C@@H](c1ccc(C(=O)O)cc1)C[C@H]2NC(=O)C(C)(C)Oc1cccc(C(F)(F)F)c1` [Example 78, 4-[(2R,4R)-7-methoxy-4-{2-methyl-2-[3-(trifluoromethyl)phenoxy]propanamido}-3,4-dihydro-2H-1-benzopyran-2-yl]benzoic acid] gave an EC50 of 2470 nM and a Maximum % activity of 32.0%.

`C[C@]1(C(=O)N[C@@H]2C[C@H](c3cccc(C(=O)O)c3)Oc3ccccc32)CCc2cc(Cl)ccc2O1` [Example 66, 3-[(2R,4R)-4-{[(2R)-6-chloro-2-methyl-3,4-dihydro-2H-1-benzopyran-2-carbonyl]amino}-3,4-dihydro-2H-1-benzopyran-2-yl]benzoic acid] registered an EC50 above 20000 nM and a Maximum % activity of 4.8%.

Compound `CC(C)(C(=O)N[C@@H]1C[C@H](c2cccc(C(=O)O)c2)Oc2ccccc21)c1ccc(Cl)cc1Cl` [Example 52, 3-{(2R,4R)-4-[2-(2,4-dichlorophenyl)-2-methylpropanamido]-3,4-dihydro-2H-1-benzopyran-2-yl}benzoic acid] yielded an EC50 above 20000 nM and a Maximum % activity of 1.8%.
